In the NIST ThermoML archive (doi:10.1016/j.fluid.2018.07.028) one finds activity coefficient data, which are given here for ten molecules.

The nature of the data set: activity coefficient (dimensionless); of the first substance listed, at infinite dilution; xn = mol fraction of the nth substance listed. Conditions: 101.33 kPa, Liquid, Chromatography, x1 = 0.

Numbers after ± are expanded uncertainties.

In the case of `Cc1ccccc1C` [1,2-dimethylbenzene] + CCCC[P+](CCCC)(CCCC)CCCC.O=S(=O)([N-]S(=O)(=O)C(F)(F)F)C(F)(F)F, the activity coefficient (358.15 K) turned out to be 1.39 ± 0.09; the activity coefficient (368.15 K) was determined as 1.43 ± 0.09; the activity coefficient (378.15 K) turned out to be 1.48 ± 0.1; the activity coefficient (388.15 K) came out at 1.52 ± 0.1; the activity coefficient (398.15 K) came to 1.57 ± 0.1; the activity coefficient (408.15 K) stood at 1.61 ± 0.11.

For the molecule `Cc1cccc(C)c1` [1,3-dimethylbenzene] + CCCC[P+](CCCC)(CCCC)CCCC.O=S(=O)([N-]S(=O)(=O)C(F)(F)F)C(F)(F)F, the activity coefficient runs as follows: (358.15 K) 1.53 ± 0.1; (368.15 K) 1.58 ± 0.1; (378.15 K) 1.63 ± 0.11; (388.15 K) 1.68 ± 0.11; (398.15 K) 1.72 ± 0.12; (408.15 K) 1.77 ± 0.12.

Consider `Cc1ccc(C)cc1` [1,4-dimethylbenzene] + CCCC[P+](CCCC)(CCCC)CCCC.O=S(=O)([N-]S(=O)(=O)C(F)(F)F)C(F)(F)F, for which the activity coefficient by setting is: (358.15 K) 1.55 ± 0.1; (368.15 K) 1.6 ± 0.11; (378.15 K) 1.64 ± 0.11; (388.15 K) 1.69 ± 0.11; (398.15 K) 1.74 ± 0.12; (408.15 K) 1.79 ± 0.12.

In the case of `C1COCCO1` [1,4-dioxane] + CCCC[P+](CCCC)(CCCC)CCCC.O=S(=O)([N-]S(=O)(=O)C(F)(F)F)C(F)(F)F, the activity coefficient turned out to be 0.795 ± 0.052 (358.15 K); 0.825 ± 0.053 (368.15 K); 0.853 ± 0.055 (378.15 K); 0.884 ± 0.056 (388.15 K); 0.911 ± 0.058 (398.15 K); 0.941 ± 0.059 (408.15 K).

Consider `C=CCCCCCCCC` [1-decene] + CCCC[P+](CCCC)(CCCC)CCCC.O=S(=O)([N-]S(=O)(=O)C(F)(F)F)C(F)(F)F, for which the activity coefficient is, setting by setting: (358.15 K) 7.54 ± 0.51; (368.15 K) 7.48 ± 0.51; (378.15 K) 7.41 ± 0.51; (388.15 K) 7.36 ± 0.5; (398.15 K) 7.3 ± 0.5; (408.15 K) 7.25 ± 0.49.

For `C=CCCCCC` [1-heptene] + CCCC[P+](CCCC)(CCCC)CCCC.O=S(=O)([N-]S(=O)(=O)C(F)(F)F)C(F)(F)F, the activity coefficient (358.15 K) is 3.96 ± 0.27; the activity coefficient (368.15 K) turned out to be 4 ± 0.27; the activity coefficient (378.15 K) was 4.05 ± 0.28; the activity coefficient (388.15 K) came out at 4.09 ± 0.28; the activity coefficient (398.15 K) amounted to 4.13 ± 0.28; the activity coefficient (408.15 K) stood at 4.17 ± 0.28.

Turning to `C#CCCCCC` [1-heptyne] + CCCC[P+](CCCC)(CCCC)CCCC.O=S(=O)([N-]S(=O)(=O)C(F)(F)F)C(F)(F)F, the activity coefficient (358.15 K) came to 2.28 ± 0.16; the activity coefficient (368.15 K) came out at 2.35 ± 0.16; the activity coefficient (378.15 K) turned out to be 2.42 ± 0.16; the activity coefficient (388.15 K) was found to be 2.48 ± 0.17; the activity coefficient (398.15 K) was 2.55 ± 0.17; the activity coefficient (408.15 K) came to 2.62 ± 0.18.

As for `C#CCCCC` [1-hexyne] + CCCC[P+](CCCC)(CCCC)CCCC.O=S(=O)([N-]S(=O)(=O)C(F)(F)F)C(F)(F)F, the activity coefficient is 1.88 ± 0.13 (358.15 K); 1.94 ± 0.13 (368.15 K); 2 ± 0.14 (378.15 K); 2.06 ± 0.14 (388.15 K); 2.11 ± 0.14 (398.15 K); 2.17 ± 0.15 (408.15 K).

Consider `CCC[N+](=O)[O-]` [1-nitropropane] + CCCC[P+](CCCC)(CCCC)CCCC.O=S(=O)([N-]S(=O)(=O)C(F)(F)F)C(F)(F)F, for which the activity coefficient runs as follows: (358.15 K) 0.693 ± 0.047; (368.15 K) 0.708 ± 0.047; (378.15 K) 0.724 ± 0.048; (388.15 K) 0.739 ± 0.049; (398.15 K) 0.754 ± 0.05; (408.15 K) 0.768 ± 0.05.

In the case of `C#CCCCCCC` [1-octyne] + CCCC[P+](CCCC)(CCCC)CCCC.O=S(=O)([N-]S(=O)(=O)C(F)(F)F)C(F)(F)F, the activity coefficient (358.15 K) was determined as 2.79 ± 0.19; the activity coefficient (368.15 K) is 2.87 ± 0.2; the activity coefficient (378.15 K) was 2.93 ± 0.2; the activity coefficient (388.15 K) came to 3 ± 0.2; the activity coefficient (398.15 K) came to 3.07 ± 0.21; the activity coefficient (408.15 K) amounted to 3.13 ± 0.21.
